Data from publication PMC6147116 (Journal of Enzyme Inhibition and Medicinal Chemistry, 2018).
Read-outs that look alike come from different tables or passages of the source.

What was measured:
human aromatase = biological target: T1, human aromatase (Homo sapiens, UniProt P11511); experiment: Aromatase inhibition, in vitro radiosubstrate incubation (testosterone to E2 conversion), human placental microsomes; type: biochemical; conditions: for remaining activity at 10 µM: read-out: Arom Rel.conv. ± SD
T1 construct: from tissue; host or cells: human term placenta, microsomal fraction
T1 sequence (P11511 1-503): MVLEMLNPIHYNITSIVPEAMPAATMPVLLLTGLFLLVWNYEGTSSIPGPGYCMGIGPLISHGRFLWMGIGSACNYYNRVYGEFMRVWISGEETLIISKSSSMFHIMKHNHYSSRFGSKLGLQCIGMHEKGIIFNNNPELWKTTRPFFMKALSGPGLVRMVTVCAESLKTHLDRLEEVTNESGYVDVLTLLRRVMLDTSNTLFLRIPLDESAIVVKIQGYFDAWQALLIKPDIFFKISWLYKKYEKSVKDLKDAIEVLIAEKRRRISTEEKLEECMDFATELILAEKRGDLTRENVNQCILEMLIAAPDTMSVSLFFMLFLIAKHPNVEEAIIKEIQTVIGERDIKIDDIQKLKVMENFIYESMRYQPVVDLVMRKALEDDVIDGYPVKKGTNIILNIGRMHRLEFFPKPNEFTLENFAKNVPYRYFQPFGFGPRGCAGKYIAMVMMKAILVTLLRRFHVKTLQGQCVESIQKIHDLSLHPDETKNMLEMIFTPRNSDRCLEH
Experimental: (§1) Enzyme inhibition studies were performed by in vitro radiosubstrate incubations using human term placenta cytosol and microsomas as enzyme sources. […] Relative conversions compared to non-inhibited controls (100%) were measured in the presence of 10 µM concentration of the test compound. […] Mechanistic and kinetic investigations were performed and inhibitory constants (Ki) were determined for selected compounds.
(§2) Enzymatic incubations were carried out in the HEPES buffer medium at a final volume of 200
(§3) µl. The substrate was added to the incubate in 20 µl of a 25 v/v% propylene glycol in HEPES buffer solution, whereas test compounds were applied in 10 µl of dimethyl sulfoxide solution.
Incubations were performed at 37 °C and terminated by cooling and the addition of organic solvents of the subsequent extraction procedure. Control samples with no inhibitor and blank samples were incubated simultaneously. The radioactivity of the products formed was measured by means of liquid scintillation counting (LSC) and taken as indicator of the […]
In the aromatase assays the microsoma suspension was incubated with appropriate concentration of unlabelled testosterone (2) substrate spiked with [1,2,6,7-3H]testosterone tracer, and in the presence of 0.1 mM NADPH cofactor excess. (In this case, solution of the substrate was prepared with acetonitrile instead of propylene glycol.) Incubation time was 40 min. The incubation mixture was extracted with toluene, then the toluene phase was drained and washed with HEPES buffer. Aromatase products containing phenolic hydroxy group were extracted with 1.2 M sodium hydroxide solution from the toluene extract and the alkaline phase was measured in the LSC. […]
was extracted with toluene. […]
(§4) In the general procedure, incubations were performed as described. Concentrations of the substrates were 1.0 µM, and the test compounds were applied at 10 µM final concentration in the incubate. Relative conversions compared to non-inhibited controls (100%) were determined. The assays were performed in triplicate, and the mean value and the standard deviation (SD) were calculated. […]
(§5) these cases, conversions were measured at 10–15 different concentrations in the appropriate interval between 0.001–50 µM. IC50 results were calculated by using unweighted iterative least squares logistic curve fitting by means of the “absolute IC50 calculation“ function of the GraphPad Prism 4.0 software (GraphPad Software, Inc., San Diego, CA, USA).
Kinetic analyses were performed via measurement of the enzymatic transformation using different fixed substrate concentrations and varied inhibitor concentrations. The Dixon’s linear transformation (1/velocity vs. inhibitor concentration) was applied for evaluation and the inhibition constant (Ki) was determined from abscissa of intersection of the lines of different substrate concentrations. Mechanism of binding was identified according to the […]

steroid sulfatase (STS) = biological target: T2, steroid sulfatase (STS) (Homo sapiens, UniProt P08842); experiment: STS inhibition, in vitro radiosubstrate incubation (release of E1 from E1S), human placental microsomes; Dixon kinetic analysis; type: biochemical; conditions: for remaining activity at 10 µM: 10 µM test compound, non-inhibited control 100%, mean ± SD, n = 3, read-out: STS Rel.conv. ± SD
T2 construct: from tissue; host or cells: human term placenta, microsomal fraction
T2 sequence (P08842 22-583): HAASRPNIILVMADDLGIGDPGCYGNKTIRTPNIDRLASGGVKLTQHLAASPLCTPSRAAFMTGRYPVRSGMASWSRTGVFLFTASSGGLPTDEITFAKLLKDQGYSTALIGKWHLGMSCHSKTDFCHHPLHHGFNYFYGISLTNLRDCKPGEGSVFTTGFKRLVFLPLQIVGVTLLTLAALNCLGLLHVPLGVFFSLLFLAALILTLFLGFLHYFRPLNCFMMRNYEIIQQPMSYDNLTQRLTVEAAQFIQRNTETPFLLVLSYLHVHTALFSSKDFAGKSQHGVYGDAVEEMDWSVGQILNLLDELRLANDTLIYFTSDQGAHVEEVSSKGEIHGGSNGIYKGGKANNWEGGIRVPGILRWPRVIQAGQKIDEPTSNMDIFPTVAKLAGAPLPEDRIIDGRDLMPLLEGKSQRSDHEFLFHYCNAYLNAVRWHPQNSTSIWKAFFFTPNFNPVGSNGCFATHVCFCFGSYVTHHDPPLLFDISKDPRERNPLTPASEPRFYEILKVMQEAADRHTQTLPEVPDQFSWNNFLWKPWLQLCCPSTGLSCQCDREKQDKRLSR
Experimental: as §1
Kinetic analyses of selected compounds 7a and 16c were performed by measurement of enzyme activities using different fixed substrate concentrations and varied inhibitor concentrations.
as §2, §3
(§6) Incubations were performed at 37 °C and terminated by cooling and the addition of organic solvents of the subsequent extraction procedure. Control samples with no inhibitor and blank samples were incubated simultaneously. […]
The incubation time was 2.5 min. […]
as §4, §5
(§7) Kinetic analyses were performed via measurement of the enzymatic transformation using different fixed substrate concentrations and varied inhibitor concentrations. The Dixon’s linear transformation (1/velocity vs. inhibitor concentration) was applied for evaluation and the inhibition constant (Ki) was determined from abscissa of intersection of the lines of different substrate concentrations. Mechanism of binding was identified according to the Dixon’s graphs and the secondary plot of slopes of the Dixon’s lines vs. 1/substrate […]
The inhibitor compounds were preincubated with the appropriate placenta fraction in a volume of 4.0 µl at 37 °C for various time periods (2.5-40 min). Following this procedure, […]

[1] = biological target: T3, 17β-hydroxysteroid dehydrogenase type 1 (17β-HSD1) (Homo sapiens, UniProt P14061); experiment: 17β-HSD1 inhibition, in vitro radiosubstrate incubation (E1 to E2), human placental cytosol; Dixon kinetic analysis; type: biochemical; conditions: for IC50: E1 substrate 1.0 µM, NADPH excess
T3 sequence (P14061 1-328): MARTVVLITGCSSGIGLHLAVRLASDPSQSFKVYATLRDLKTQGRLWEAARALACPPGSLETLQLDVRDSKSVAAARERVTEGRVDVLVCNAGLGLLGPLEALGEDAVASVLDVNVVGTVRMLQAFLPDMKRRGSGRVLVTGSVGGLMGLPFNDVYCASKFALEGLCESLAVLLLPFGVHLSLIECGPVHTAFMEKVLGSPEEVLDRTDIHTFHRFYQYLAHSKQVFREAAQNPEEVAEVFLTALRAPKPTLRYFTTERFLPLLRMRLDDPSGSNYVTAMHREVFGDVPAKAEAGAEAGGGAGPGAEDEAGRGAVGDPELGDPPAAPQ
Experimental: as §1
Inhibitors that bind to the steroid site of 17β-HSD1 can bind to both the free enzyme and the binary enzyme–cofactor complex by random kinetic mechanism.
as §2, §3, §6
The incubation time was 2.5 min. The product 17β-estradiol (E2, 5) was extracted with ethyl acetate and isolated by a TLC method (details are published in our earlier reference).
as §4, §5, §7
The inhibitor compounds were preincubated with the appropriate placenta fraction in a volume of 4.0 µl at 37 °C for various time periods (2.5-40 min). Following this procedure, samples were diluted with the incubation medium to 50-fold. Enzyme activity measurements

[2] = biological target: T3, 17β-hydroxysteroid dehydrogenase type 1 (17β-HSD1); conditions: earlier paper of the authors; read-out: 17β-HSD1 IC50 ± SD; cited from earlier work
[3] = 10 µM test compound, non-inhibited control 100%, mean ± SD, n = 3
[4] = E1S substrate 1.0 µM, read-out: STS IC50 ± SD

| SMILES | remaining activity at 10 µM (human aromatase; [3]) [%] | remaining activity at 10 µM (steroid sulfatase (STS)) [%] | IC50 ([1]; read-out: 17β-HSD1 IC50 ± SD) [nM] | IC50 (steroid sulfatase (STS); [4]) [µM] | further results |
| --- | --- | --- | --- | --- | --- |
| C[C@]12CC[C@@H]3c4cc(I)c(O)cc4CC[C@H]3[C@@H]1CCC2=O [6a, 2-Iodoestrone] | 66 | 64 ± 3 | 64 ± 34 | – | IC50 (human aromatase; testosterone substrate 1.0 µM, read-out: Arom IC50 ± SD): > 10 µM |
| C[C@]12CC[C@@H]3c4cc(Br)c(O)c(Br)c4CC[C@H]3[C@@H]1CCC2=O [8b] | 81 ± 5 | – | 960 ± 450 | 2.1 ± 0.6 | – |
| C[C@]12CCC[C@H]1[C@@H]1CCc3c(cc(Br)c(O)c3Br)[C@H]1CC2 [16b] | – | – | – | – | remaining activity at 10 µM (human aromatase): 82 ± 6%; IC50 (steroid sulfatase (STS)): 7.5 ± 2 µM; IC50 ([1]; 17β-HSD1 IC50 ± SD): 4100 ± 2500 nM |
| C[C@@]12CC[C@@H]3c4ccc(O)c(Br)c4CC[C@H]3[C@@H]1CCC2=O [11b] | 78 ± 1 | – | – | 8.5 ± 3.1 | IC50 [2]: 2100 ± 1200 nM |
| C[C@@]12CC[C@@H]3c4cc(Cl)c(O)cc4CC[C@H]3[C@@H]1CCC2=O [10c] | 106 ± 6 | 57 ± 1 | 330 ± 100 | – | – |
| C[C@]12CCC[C@H]1[C@@H]1CCc3cc(O)c(Br)cc3[C@H]1CC2 [14b] | 97 ± 5 | – | 1300 ± 800 | 4.1 ± 1.3 | – |
| C[C@]12CCC[C@H]1[C@@H]1CCc3cc(O)c(Cl)cc3[C@H]1CC2 [14c] | 88 ± 10 | – | 2600 ± 1300 | 7 ± 1.9 | – |
| C[C@]12CC[C@@H]3c4cc(I)c(O)c(I)c4CC[C@H]3[C@@H]1CCC2=O [8a] | 86 ± 6 | 80 ± 13 | – | – | 17β-HSD1 Rel.conv. ± SD [1, 3]: 55 ± 7% |
| C[C@]12CC[C@@H]3c4ccc(O)c(Cl)c4CC[C@H]3[C@@H]1CCC2=O [7c] | – | – | – | – | remaining activity at 10 µM (human aromatase): 92 ± 3%; IC50 (steroid sulfatase (STS)): 1.6 ± 0.3 µM; IC50 ([1]; 17β-HSD1 IC50 ± SD): 600 ± 160 nM |
| C[C@]12CCC[C@H]1[C@@H]1CCc3cc(O)ccc3[C@H]1CC2 [compound 13, 17-deoxy-13α-estrone] | 95 ± 12 | 76 ± 5 | 1100 ± 330 | – | Ki ([1]; from Dixon plot, cofactor excess): 2000 nM |
| C[C@@]12CC[C@@H]3c4cc(Br)c(O)c(Br)c4CC[C@H]3[C@@H]1CCC2=O [12b] | 108 ± 11 | 71 ± 4 | – | – | IC50 [2]: 2700 ± 100 nM |
| C[C@]12CCC[C@H]1[C@@H]1CCc3cc(O)c(I)cc3[C@H]1CC2 [14a] | 89 ± 9 | – | 2900 ± 1600 | 3.9 ± 1.6 | – |
